Experimental data taken from PubChem BioAssay AID330 (DTP/NCI, 2004).
“And” between values parts separate entries of the source, which are not always exact repeats. Equal values may be shown once. Inconclusive results and toxic doses are left out.

Test system: P388 leukemia ip, CD2F1 mice, survival T/C
Assay: NCI In Vivo Anticancer Drug Screen. Data for tumor model P388 Leukemia (intraperitoneal) in CD2F1 (CDF1) mice
Settings: endpoint: median survival time, higher = longer survival
Outline: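 Mice carrying the transplanted tumor received test compound or vehicle. Survival was recorded in each group, and the value is the treated-group measurement divided by that of the vehicle-treated control group.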

[1] = dose: 200.0 mg/kg/injection, schedule: Q04DX003 (ip), vehicle: saline with Tween-80
[2] = dose: 50.0 mg/kg/injection, schedule: Q01DX005 (ip), vehicle: saline with Tween-80
[3] = dose: 100.0 mg/kg/injection, schedule: Q01DX005 (ip), vehicle: saline with Tween-80
[4] = dose: 200.0 mg/kg/injection, schedule: Q01DX005 (ip), vehicle: saline with Tween-80
[5] = dose: 50.0 mg/kg/injection, schedule: Q01DX005 (ip), vehicle: Klucel (hydroxypropylcellulose) (HPC)
[6] = dose: 100.0 mg/kg/injection, schedule: Q01DX005 (ip), vehicle: Klucel (hydroxypropylcellulose) (HPC)
[7] = dose: 200.0 mg/kg/injection, schedule: Q01DX005 (ip), vehicle: Klucel (hydroxypropylcellulose) (HPC)

C[C@]12CC[C@H](OC(=O)Cc3ccc(N(CCCl)CCCl)cc3)CC1=CC[C@@H]1[C@@H]2CC[C@]2(C)C(=O)CC[C@@H]12
T/C (dose: 16.0 mg/kg/injection, schedule: Q03HX024 (ip), vehicle: saline): 95 % of control
T/C (dose: 32.0 mg/kg/injection, schedule: Q03HX008 (ip), vehicle: saline): 90 % of control
T/C (dose: 32.0 mg/kg/injection, schedule: Q03HX016 (ip), vehicle: saline): 100 % of control
T/C (dose: 32.0 mg/kg/injection, schedule: Q03HX024 (ip), vehicle: saline): 90 % of control
T/C (dose: 64.0 mg/kg/injection, schedule: Q01DX009 (ip), vehicle: saline): 100 % of control
T/C (dose: 64.0 mg/kg/injection, schedule: Q01DX009 (sc), vehicle: saline): 104 % of control
T/C (dose: 64.0 mg/kg/injection, schedule: Q03HX008 (ip), vehicle: saline): 109 % of control
T/C (dose: 64.0 mg/kg/injection, schedule: Q03HX016 (ip), vehicle: saline): 109 % of control
T/C (dose: 64.0 mg/kg/injection, schedule: Q03HX024 (ip), vehicle: saline): 109 % of control
T/C (dose: 128.0 mg/kg/injection, schedule: Q01DX009 (ip), vehicle: saline): 95 % of control
T/C (dose: 128.0 mg/kg/injection, schedule: Q01DX009 (sc), vehicle: saline): 109 % of control
T/C (dose: 128.0 mg/kg/injection, schedule: Q03HX008 (ip), vehicle: saline): 168 % of control
T/C (dose: 128.0 mg/kg/injection, schedule: Q03HX016 (ip), vehicle: saline): 154 % of control
T/C (dose: 128.0 mg/kg/injection, schedule: Q03HX024 (ip), vehicle: saline): 100 % of control
T/C (dose: 128.0 mg/kg/injection, schedule: Q04DX003 (ip), vehicle: saline): 100 % of control
T/C [1]: 150 % of control
T/C (dose: 256.0 mg/kg/injection, schedule: Q01DX001 (ip), vehicle: saline): 100 % of control
T/C (dose: 256.0 mg/kg/injection, schedule: Q01DX001 (sc), vehicle: saline): 100 % of control
T/C (dose: 256.0 mg/kg/injection, schedule: Q01DX009 (oral), vehicle: saline): 109 % of control
T/C (dose: 256.0 mg/kg/injection, schedule: Q01DX009 (sc), vehicle: saline): 118 % of control
T/C (dose: 256.0 mg/kg/injection, schedule: Q03HX008 (ip), vehicle: saline): 122 % of control
T/C (dose: 256.0 mg/kg/injection, schedule: Q04DX003 (ip), vehicle: saline): 100 % of control
T/C (dose: 256.0 mg/kg/injection, schedule: Q08DX002 (ip), vehicle: saline): 100 % of control
T/C (dose: 264.0 mg/kg/injection, schedule: Q04DX003 (ip), vehicle: saline with Tween-80): 179 % of control
T/C (dose: 400.0 mg/kg/injection, schedule: Q04DX003 (ip), vehicle: saline with Tween-80): 183 % of control and 200 % of control
T/C (dose: 512.0 mg/kg/injection, schedule: Q01DX001 (ip), vehicle: saline): 104 % of control
T/C (dose: 512.0 mg/kg/injection, schedule: Q01DX001 (sc), vehicle: saline): 104 % of control
T/C (dose: 512.0 mg/kg/injection, schedule: Q01DX009 (ip), vehicle: saline): 150 % of control
T/C (dose: 512.0 mg/kg/injection, schedule: Q01DX009 (oral), vehicle: saline): 113 % of control
T/C (dose: 512.0 mg/kg/injection, schedule: Q04DX003 (ip), vehicle: saline): 122 % of control
T/C (dose: 512.0 mg/kg/injection, schedule: Q08DX002 (ip), vehicle: saline): 118 % of control
T/C (dose: 600.0 mg/kg/injection, schedule: Q04DX003 (ip), vehicle: saline with Tween-80): 112 % of control
T/C (dose: 1024.0 mg/kg/injection, schedule: Q01DX001 (ip), vehicle: saline): 118 % of control
T/C (dose: 1024.0 mg/kg/injection, schedule: Q01DX001 (sc), vehicle: saline): 118 % of control
T/C (dose: 1024.0 mg/kg/injection, schedule: Q01DX009 (oral), vehicle: saline): 109 % of control
T/C (dose: 1024.0 mg/kg/injection, schedule: Q04DX003 (ip), vehicle: saline): 163 % of control
T/C (dose: 1024.0 mg/kg/injection, schedule: Q08DX002 (ip), vehicle: saline): 159 % of control
T/C (dose: 2048.0 mg/kg/injection, schedule: Q01DX001 (ip), vehicle: saline): 109 % of control
T/C (dose: 2048.0 mg/kg/injection, schedule: Q01DX009 (oral), vehicle: saline): 118 % of control
T/C (dose: 2048.0 mg/kg/injection, schedule: Q08DX002 (ip), vehicle: saline): 90 % of control

Cc1ncc2c(n1)CCC1=C2OS(=O)(=O)CC1N(C)C (configuration not stated)
T/C [2]: 115 % of control
T/C [3]: 97 % of control

COc1cc(I)cc(OC)c1OC
T/C (dose: 6.25 mg/kg/injection, schedule: Q01DX009 (ip), vehicle: Klucel (hydroxypropylcellulose) (HPC)): 97 % of control
T/C (dose: 12.5 mg/kg/injection, schedule: Q01DX009 (ip), vehicle: Klucel (hydroxypropylcellulose) (HPC)): 94 % of control
T/C (dose: 25.0 mg/kg/injection, schedule: Q01DX009 (ip), vehicle: Klucel (hydroxypropylcellulose) (HPC)): 96 % of control
T/C (dose: 50.0 mg/kg/injection, schedule: Q01DX009 (ip), vehicle: Klucel (hydroxypropylcellulose) (HPC)): 91 % of control

CC(/C=C/c1ccc2c(c1)OCO2)=N\NC(N)=O
T/C [2]: 100 % of control
T/C [3]: 97 % of control
T/C [4]: 95 % of control

CC(C)C(=O)OC1(C(C)c2ccccc2)C(=O)NC(=O)NC1=O (configuration not stated)
T/C (dose: 7.5 mg/kg/injection, schedule: Q01DX005 (ip), vehicle: Klucel (hydroxypropylcellulose) (HPC)): 98 % of control
T/C (dose: 15.0 mg/kg/injection, schedule: Q01DX005 (ip), vehicle: Klucel (hydroxypropylcellulose) (HPC)): 102 % of control

CCN(CC)c1ncnc2c1ncn2Cc1ccc(C(=O)OC)cc1
T/C [2]: 100 % of control
T/C [3]: 100 % of control
T/C [4]: 94 % of control

O=C1Cc2ccccc2C2(CCCCC2)O1
T/C [5]: 100 % of control
T/C [6]: 98 % of control
T/C [7]: 100 % of control

CSC(=S)n1nc(-c2ccccc2)c(N=Nc2cccc(C)c2C)c1C
T/C (dose: 100.0 mg/kg/injection, schedule: Q04DX002 (ip), vehicle: saline with Tween-80): 88 % of control
T/C (dose: 200.0 mg/kg/injection, schedule: Q04DX002 (ip), vehicle: saline with Tween-80): 90 % of control
T/C (dose: 400.0 mg/kg/injection, schedule: Q04DX002 (ip), vehicle: saline with Tween-80): 112 % of control

O=C(NC(CO)C(=O)O)C(Cl)Cl (configuration not stated)
T/C [5]: 101 % of control
T/C [6]: 95 % of control
T/C [7]: 101 % of control

CCC(=O)OC1CCC2C3CCC(=O)OC3C(C)(CCC(=O)O)CC12C (configuration not stated)
T/C [2]: 93 % of control
T/C [3]: 99 % of control
T/C [4]: 90 % of control

CSc1nccc(=O)n1-c1ccccc1Cl
T/C (dose: 100.0 mg/kg/injection, schedule: Q04DX003 (ip), vehicle: saline with Tween-80): 109 % of control
T/C [1]: 114 % of control

OCCSCc1ccc(F)cc1
T/C [5]: 101 % of control
T/C [6]: 97 % of control
T/C [7]: 104 % of control

NC(=O)c1ccccn1
T/C (dose: 25.0 mg/kg/injection, schedule: Q01DX009 (ip), vehicle: saline): 108 % of control
T/C (dose: 50.0 mg/kg/injection, schedule: Q01DX009 (ip), vehicle: saline): 110 % of control
T/C (dose: 100.0 mg/kg/injection, schedule: Q01DX009 (ip), vehicle: saline): 99 % of control
T/C (dose: 200.0 mg/kg/injection, schedule: Q01DX009 (ip), vehicle: saline): 99 % of control

O=c1c2cc(O)c(O)cc2oc2cc(O)c(C3OC(CO)C(O)C(O)C3O)c(O)c12 (configuration not stated)
T/C (dose: 100.0 mg/kg/injection, schedule: Q01DX001 (ip), vehicle: saline): 101 % of control
T/C (dose: 400.0 mg/kg/injection, schedule: Q01DX001 (ip), vehicle: saline): 101 % of control

CN(C)CCS(=O)(=O)O
T/C (dose: 1.56 mg/kg/injection, schedule: Q04DX003 (ip), vehicle: saline): 100 % of control
T/C (dose: 3.12 mg/kg/injection, schedule: Q04DX003 (ip), vehicle: saline): 100 % of control
T/C (dose: 6.25 mg/kg/injection, schedule: Q04DX003 (ip), vehicle: saline): 88 % of control
T/C (dose: 12.5 mg/kg/injection, schedule: Q04DX003 (ip), vehicle: saline): 94 % of control
T/C (dose: 50.0 mg/kg/injection, schedule: Q04DX003 (ip), vehicle: saline): 97 % of control
T/C (dose: 100.0 mg/kg/injection, schedule: Q04DX003 (ip), vehicle: saline): 102 % of control

C=C1C(=O)OC2C1CCC1(C)CCCC(=C)C21 (configuration not stated)
T/C (dose: 2.5 mg/kg/injection, schedule: Q01DX009 (ip), vehicle: Klucel (hydroxypropylcellulose) (HPC)): 93 % of control
T/C (dose: 5.0 mg/kg/injection, schedule: Q01DX009 (ip), vehicle: Klucel (hydroxypropylcellulose) (HPC)): 96 % of control
T/C (dose: 10.0 mg/kg/injection, schedule: Q01DX009 (ip), vehicle: Klucel (hydroxypropylcellulose) (HPC)): 92 % of control
T/C (dose: 20.0 mg/kg/injection, schedule: Q01DX009 (ip), vehicle: Klucel (hydroxypropylcellulose) (HPC)): 96 % of control
